Measurements as given in US20080125469A1, “Thiadiazole compounds and methods of use thereof” (Wyeth, priority 2006, published 2008).

Target: T1, purified recombinant human Aggrecanase-2 (Agg2-Phe628) (Homo sapiens, UniProt Q9UNA0)
T1 construct: (Agg2-Phe628) (MW=41,737), which is a truncated form of full-length human aggrecanase-2; made in house; host or cells: CHO cells
T1 sequence (Q9UNA0 262-628 limits assumed): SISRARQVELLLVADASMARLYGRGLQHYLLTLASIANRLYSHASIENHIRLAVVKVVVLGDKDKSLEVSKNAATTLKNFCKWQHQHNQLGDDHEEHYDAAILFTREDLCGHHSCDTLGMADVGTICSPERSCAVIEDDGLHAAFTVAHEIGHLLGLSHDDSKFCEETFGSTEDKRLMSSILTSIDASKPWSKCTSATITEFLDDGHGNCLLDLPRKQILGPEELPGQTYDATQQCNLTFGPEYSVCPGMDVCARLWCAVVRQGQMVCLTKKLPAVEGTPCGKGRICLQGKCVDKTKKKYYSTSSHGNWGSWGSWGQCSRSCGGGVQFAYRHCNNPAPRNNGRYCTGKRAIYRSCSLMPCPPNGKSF
Assay: Aggrecanase 2 continuous in vitro fluorescence assay
Assay type: biochemical
Conditions: Agg2-Phe628 0.5 μg/ml, substrate 25 μM, 30° C.; read-out: IC50
Protocol: A continuous vitro fluorescence assay was employed, wherein the enzyme used in the assay was a purified recombinant human Aggrecanase-2 (Agg2-Phe628) (MW=41,737), which is a truncated form of full-length human aggrecanase-2 that was expressed in CHO cells and purified prior to use. The final concentration of Agg2-Phe628 was 0.5 μg/ml. The buffer used in this assay was 50 mM HEPES, pH 7.5, 100 mM NaCl, 5 mM CaCl2, 0.1% CHAPS, 5% glycerol. The substrate used in the assay was a synthetic peptide having the sequence ABz-[sequence]-Dap(Dnp)-KK—NH2 (>95% pure by HPLC, AnaSpec, Inc.), wherein Abz refers to ortho-aminobenzyl, a fluorescent group which is quenched by energy transfer to a 2,4-dinitrophenyl group. The final concentration of substrate in the assay was 25 μM and was spectrophotometrically determined using the extinction coefficient at 354 nm of 18,172 M^−1cm^−1. The Vmax and Km for this enzyme/substrate reaction were determined to be insensitive to DMSO up to at least 10% (v/v).
The total reaction volume was 100 μl. The buffer and enzyme were added first followed by addition of 10× inhibitor from the dilution plate. Separate enzyme and buffer samples were included in order to obtain the maximal rate of substrate cleavage. The reaction was allowed to stand at 30° C. for 15 minutes, then substrate was added, the resultant solution was mixed. The resultant reaction was allowed to progress, with monitoring, for 40 minutes at 30° C. in kinetic mode using λex: 340 nm and λem: 420 (GeminiXS Molecular Devices).
The fluorescence intensity is linear during the time of data collection. The slope of the line (Vmax/sec) represents the initial reaction rate, ν. The maximal rate of cleavage of substrate was determined in the absence of inhibitor. The percent inhibition of activity in the presence of inhibitor was calculated using the following equation:
% inhibition=(1−ν(RFU/sec))/Maximal Rate(RFU/sec))*100
The IC50 was obtained by fitting the initial rate, ν or % inhibition at each concentration of inhibitor to the following equation:
This model describes a sigmoidal curve with an adjustable baseline, wherein:
y is the % inhibition or initial rate of reaction;
C is the concentration of inhibitor under test;
a is the limiting response as C approaches zero. As C increases without bound y tends toward its lower limit, d;
y is halfway between the lower and upper asymptotes when C=IC50; and
n is the Hill coefficient. The sign of n is positive when the response increases with increasing dose and is negative when the response decreases with increasing dose (inhibition).

Compound	IC50
O=C1Nc2ccccc2C12NN=C(c1ccccc1)S2 (stereo not shown) [Compound 53, 5′-phenyl-3′H-spiro[indoline-3,2′-[1,3,4]thiadiazol]-2-one]	30000 nM
O=C1N(c2ccccc2)c2ccccc2C12NN=C(c1ccccc1)S2 (stereo not shown) [Compound 38, 1,5′-diphenyl-3′H-spiro[indole-3,2′-[1,3,4]thiadiazol]-2(1H)-one]	2620 nM
COc1ccc(C2=NNC3(S2)C(=O)Nc2c3ccc(C)c2OC)cc1 (stereo not shown) [Compound 20, 7-methoxy-5′-(4-methoxyphenyl)-6-methyl-3′H-spiro[indole-3,2′-[1,3,4]thiadiazol]-2(1H)-one]	5920 nM
Cc1cc(C)c2c(c1)C1(NN=C(c3ccccc3)S1)C(=O)N2 (stereo not shown) [Compound 34, 5,7-dimethyl-5′-phenyl-3′H-spiro[indole-3,2′-[1,3,4]thiadiazol]-2(1H)-one]	4670 nM
C=CCN1C(=O)C2(NN=C(c3ccccc3)S2)c2ccccc21 (stereo not shown) [Compound 41, 1-allyl-5′-phenyl-3′H-spiro[indole-3,2′-[1,3,4]thiadiazol]-2(1H)-one]	4880 nM
COc1ccc(C2=NNC3(S2)C(=O)Nc2ccc(C)cc23)cc1 (stereo not shown) [Compound 5, 5′-(4-methoxyphenyl)-5-methyl-3′H-spiro[indole-3,2′-[1,3,4]thiadiazol]-2(1H)-one]	2530 nM
CCc1ccc2c(c1)C1(NN=C(c3ccc(F)cc3)S1)C(=O)N2 (stereo not shown) [Compound 43, 5-ethyl-5′-(4-fluorophenyl)-3′H-spiro[indole-3,2′-[1,3,4]thiadiazol]-2(1H)-one]	2960 nM
COc1ccc(C2=NNC3(S2)C(=O)N(c2ccc(Cl)cc2)c2ccc(C)cc23)cc1 (stereo not shown) [Compound 25, 1-(4-chlorophenyl)-5′-(4-methoxyphenyl)-5-methyl-3′H-spiro[indole-3,2′-[1,3,4]thiadiazol]-2(1H)-one]	1480 nM
CCCC(=O)N1C(=O)C2(NN=C(c3ccc(OC)cc3)S2)c2cc(CC)ccc21 (stereo not shown) [Compound 46, 1-butyryl-5-ethyl-5′-(4-methoxyphenyl)-3′H-spiro[indole-3,2′-[1,3,4]thiadiazol]-2(1H)-one]	1520 nM
COc1ccc(C2=NNC3(S2)C(=O)Nc2c3ccc(Cl)c2C)cc1 (stereo not shown) [Compound 17, 6-chloro-5′-(4-methoxyphenyl)-7-methyl-3′H-spiro[indole-3,2′-[1,3,4]thiadiazol]-2(1H)-one]	1040 nM
Cc1ccc2c(c1)C1(NN=C(c3ccccc3)S1)C(=O)N2 (stereo not shown) [Compound 55, 5-methyl-5′-phenyl-3′H-spiro[indoline-3,2′-[1,3,4]thiadiazol]-2-one]	11100 nM
CC(=O)N1C(=O)C2(NN=C(c3ccccc3)S2)c2ccccc21 (stereo not shown) [Compound 56, 1-acetyl-5′-phenyl-3′H-spiro[indoline-3,2′-[1,3,4]thiadiazol]-2-one]	12500 nM
Cc1ccc(C2=NNC3(S2)C(=O)N(Cc2ccccc2)c2ccc(C)cc23)cc1 (stereo not shown) [Compound 33, 1-benzyl-5-methyl-5′-(4-methylphenyl)-3′H-spiro[indole-3,2′-[1,3,4]thiadiazol]-2(1H)-one]	612 nM
COc1ccc(C2=NNC3(S2)C(=O)Nc2ccc(OC)cc23)cc1 (stereo not shown) [Compound 6, 5-methoxy-5′-(4-methoxyphenyl)-3′H-spiro[indole-3,2′-[1,3,4]thiadiazol]-2(1H)-one]	> 2500 nM
ethyl [5′-(4-methoxyphenyl)-2-oxo-3′H-spiro[indole-3,2′-[1,3,4]thiadiazol]-1(2H)-yl]acetate [Compound 9]	3680 nM
COc1ccc(C2=NNC3(S2)C(=O)N(c2ccc(Cl)c(Cl)c2)c2ccc(C)cc23)cc1 (stereo not shown) [Compound 26, 1-(3,4-dichlorophenyl)-5′-(4-methoxyphenyl)-5-methyl-3′H-spiro[indole-3,2′-[1,3,4]thiadiazol]-2(1H)-one]	1260 nM
CCc1ccc2c(c1)C1(NN=C(c3ccc(C(C)(C)C)cc3)S1)C(=O)N2 (stereo not shown) [Compound 44, 5′-(4-tert-butylphenyl)-5-ethyl-3′H-spiro[indole-3,2′-[1,3,4]thiadiazol]-2(1H)-one]	1660 nM
1-benzyl-5′-(4-methoxyphenyl)-3′H-spiro[indole-3,2′-[1,3,4]thiadiazol]-2(1H)-one [Compound 10]	874 nM
C#CCN1C(=O)C2(NN=C(c3ccc(OC)cc3)S2)c2ccccc21 (stereo not shown) [Compound 7, 5′-(4-methoxyphenyl)-1-prop-2-yn-1-yl-3′H-spiro[indole-3,2′-[1,3,4]thiadiazol]-2(1H)-one]	2470 nM

Further lines, results first:

IC50	Compound
1400 nM	COc1ccc(C2=NNC3(S2)C(=O)Nc2cc(C)ccc23)cc1 (stereo not shown) [Compound 19, 5′-(4-methoxyphenyl)-6-methyl-3′H-spiro[indole-3,2′-[1,3,4]thiadiazol]-2(1H)-one]
1400 nM	CCCc1ccc2c(c1)NC(=O)C21NN=C(c2ccc(C)cc2)S1 (stereo not shown) [Compound 37, 5′-(4-methylphenyl)-6-propyl-3′H-spiro[indole-3,2′-[1,3,4]thiadiazol]-2(1H)-one]
> 7000 nM	COc1ccc(C2=NNC3(S2)C(=O)N(C)c2ccccc23)cc1 (stereo not shown) [Compound 2, 5′-(4-methoxyphenyl)-1-methyl-3′H-spiro[indole-3,2′-[1,3,4]thiadiazol]-2(1H)-one]
3050 nM	CC(C)N1C(=O)C2(NN=C(c3ccccc3)S2)c2ccccc21 (stereo not shown) [Compound 42, 1-isopropyl-5′-phenyl-3′H-spiro[indole-3,2′-[1,3,4]thiadiazol]-2(1H)-one]
3060 nM	COc1ccc(C2=NNC3(S2)C(=O)Nc2c(C)cc(C)cc23)cc1 (stereo not shown) [Compound 1, 5′-(4-methoxyphenyl)-5,7-dimethyl-3′H-spiro[indole-3,2′-[1,3,4]thiadiazol]-2(1H)-one]
995 nM	COc1ccc(C2=NNC3(S2)C(=O)N(c2cccc([N+](=O)[O-])c2)c2ccc(C)cc23)cc1 (stereo not shown) [Compound 27, 5′-(4-methoxyphenyl)-5-methyl-1-(3-nitrophenyl)-3′H-spiro[indole-3,2′-[1,3,4]thiadiazol]-2(1H)-one]
1220 nM	Cc1ccc(C2=NNC3(S2)C(=O)N(c2ccccc2C)c2ccc(C)cc23)cc1 (stereo not shown) [Compound 32, 5-methyl-1-(2-methylphenyl)-5′-(4-methylphenyl)-3′H-spiro[indole-3,2′-[1,3,4]thiadiazol]-2(1H)-one]
1360 nM	CCc1ccc2c(c1)C1(NN=C(c3ccc(OC)cc3)S1)C(=O)N2 (stereo not shown) [Compound 29, 5-ethyl-5′-(4-methoxyphenyl)-3′H-spiro[indole-3,2′-[1,3,4]thiadiazol]-2(1H)-one]
1960 nM	5-chloro-5′-(4-methoxyphenyl)-3′H-spiro[indole-3,2′-[1,3,4]thiadiazol]-2(1H)-one [Compound 13]
2410 nM	COc1ccc(C2=NNC3(S2)C(=O)Nc2ccc(Br)cc23)cc1 (stereo not shown) [Compound 4, 5-bromo-5′-(4-methoxyphenyl)-3′H-spiro[indole-3,2′-[1,3,4]thiadiazol]-2(1H)-one]
1180 nM	5′-(4-methoxyphenyl)-1-[3-(trifluoromethyl)phenyl]-3′H-spiro[indole-3,2′-[1,3,4]thiadiazol]-2(1H)-one [Compound 8]
5930 nM	CCc1ccc2c(c1)C1(NN=C(c3cccc(OC)c3)S1)C(=O)N2 (stereo not shown) [Compound 30, 5-ethyl-5′-(3-methoxyphenyl)-3′H-spiro[indole-3,2′-[1,3,4]thiadiazol]-2(1H)-one]
775 nM	CCCc1ccc2c(c1)NC(=O)C21NN=C(c2ccc(OC)cc2)S1 (stereo not shown) [Compound 15, 5′-(4-methoxyphenyl)-6-propyl-3′H-spiro[indole-3,2′-[1,3,4]thiadiazol]-2(1H)-one]

Same assay, conditions: inhibitor concentration not given

Compound	% Inhibition
1-[2-(dimethylamino)ethyl]-5′-(4-methoxyphenyl)-3′H-spiro[indole-3,2′-[1,3,4]thiadiazol]-2(1H)-one [Compound 11]	30%
COc1ccc(C2=NNC3(S2)C(=O)Nc2cccc(N4CCN(Cc5ccccc5)CC4)c23)cc1 (stereo not shown) [Compound 14, 4-(4-benzylpiperazin-1-yl)-5′-(4-methoxyphenyl)-3′H-spiro[indole-3,2′-[1,3,4]thiadiazol]-2(1H)-one]	50%
O=C1Nc2c(Cl)ccc(Cl)c2C12NN=C(c1ccccc1)S2 (stereo not shown) [Compound 40, 4,7-dichloro-5′-phenyl-3′H-spiro[indole-3,2′-[1,3,4]thiadiazol]-2(1H)-one]	39%
COc1ccc2c(c1)C1(NN=C(c3ccccc3)S1)C(=O)N2 (stereo not shown) [Compound 35, 5-methoxy-5′-phenyl-3′H-spiro[indole-3,2′-[1,3,4]thiadiazol]-2(1H)-one]	41%
CCc1ccc2c(c1)C1(NN=C(c3ccccc3)S1)C(=O)N2 (stereo not shown) [Compound 47, 5-ethyl-5′-phenyl-3′H-spiro[indole-3,2′-[1,3,4]thiadiazol]-2(1H)-one]	9.6%
Cc1ccc(C2=NNC3(S2)C(=O)Nc2ccccc23)cc1 (stereo not shown) [Compound 50, 5′-(4-methylphenyl)-3′H-spiro[indole-3,2′-[1,3,4]thiadiazol]-2(1H)-one]	3.7%
COc1ccc(C2=NNC3(S2)C(=O)N(c2ccc(C)cc2)c2ccc(C)cc23)cc1 (stereo not shown) [Compound 24, 5′-(4-methoxyphenyl)-5-methyl-1-(4-methylphenyl)-3′H-spiro[indole-3,2′-[1,3,4]thiadiazol]-2(1H)-one]	39%

Same assay, conditions: positive control at 10 nM

Compound	inhibition at 0.01 µM
CNC(=O)[C@H](Cc1ccccc1)NC(=O)[C@H](CC(C)C)[C@H](CSc1cccs1)C(=O)NO [N2-{(2R)-2-[(1S)-1-Hydroxycarbamoyl-2-(thiophen-2-ylsulfanyl)-ethyl]-4-methyl-pentanoyl}-N-methyl-L-phenylalaninamide, reference compound]	40%

Same assay, conditions: positive control at 20 nM

Compound	inhibition at 0.02 µM
CNC(=O)[C@H](Cc1ccccc1)NC(=O)[C@H](CC(C)C)[C@H](CSc1cccs1)C(=O)NO [N2-{(2R)-2-[(1S)-1-Hydroxycarbamoyl-2-(thiophen-2-ylsulfanyl)-ethyl]-4-methyl-pentanoyl}-N-methyl-L-phenylalaninamide, reference compound]	60%

Same assay, conditions: positive control at 200 nM

Compound	inhibition at 0.2 µM
CNC(=O)[C@H](Cc1ccccc1)NC(=O)[C@H](CC(C)C)[C@H](CSc1cccs1)C(=O)NO [N2-{(2R)-2-[(1S)-1-Hydroxycarbamoyl-2-(thiophen-2-ylsulfanyl)-ethyl]-4-methyl-pentanoyl}-N-methyl-L-phenylalaninamide, reference compound]	100%

Same assay, conditions: positive control; read-out: Agg2 IC50

Compound	IC50
CNC(=O)[C@H](Cc1ccccc1)NC(=O)[C@H](CC(C)C)[C@H](CSc1cccs1)C(=O)NO [N2-{(2R)-2-[(1S)-1-Hydroxycarbamoyl-2-(thiophen-2-ylsulfanyl)-ethyl]-4-methyl-pentanoyl}-N-methyl-L-phenylalaninamide, reference compound]	36 nM
